Test results from patent publication US20010049374A1 (priority 1997, published 2001).

The compounds below were run against T1, urokinase enzyme Abbokinase (Homo sapiens, UniProt P00749) (assay: Determination of urokinase inhibition (Abbokinase, chromogenic substrate S-2444)). Conditions: IC50.
T1 construct: purchased Abbott Laboratories, Abbott Park, Ill
Format: biochemical
Protocol: Several vials were reconstituted as directed on the vial, aliquoted and stored frozen. The enzyme was further diluted in assay buffer and 10 μl was used in the assay. Enzyme concentration in the assay was 2-3 nM. […] The Spectromax® calculated the reaction rates which were used to calculate percent inhibition of the compounds of this invention versus the reaction rate of the enzyme in the absence of any inhibitor. The Ki's of the inhibitors were calculated from the percent inhibition and previously established Km.

With `COc1ccc2ccc(C(=N)N)cc2c1C1CCOC1` (racemic) [Example 62, (±)-7-Methoxy-8-(tetrahydro-3-furanyl)-2-naphthalenecarboximidamide] the IC50 was 0.64 µM.

Same assay, conditions: IC50, Inhibitory potency against urokinase; substrate S-2444 at 200 μM, enzyme 2-3 nM, pH 7.4, 405 nm

Point of comparison: `N=C(N)c1ccc2cc(Oc3ccccc3C=O)ccc2c1` [Example 49, 6-(2-Formylphenoxy)-2-naphthalenecarboximidamide], IC50 3.3 µM. Against it:
- COc1ccc2ccc(C(=N)N)cc2c1OC [Example 1, 7,8-Dimethoxy-2-naphthalenecarboximidamide] — 2-fold higher, 6.6 µM
- COc1cc2ccc(C(=N)N)cc2c(OC)c1OC [Example 2, 6,7,8-trimethoxy-2-naphthalenecarboximidamide] — 3-fold higher, 9.8 µM
- COc1cc2ccc(C(=N)N)cc2cc1OC [Example 3, 6,7-dimethoxy-2-naphthalenecarboximidamide] — 11-fold higher, 36 µM
- N=C(N)c1ccc2ccc(OCc3ccccc3)c(I)c2c1 [Example 5, 7-Benzyloxy-8-iodo-2-naphthalenecarboximidamide] — within 1.5-fold, 2.5 µM
- COc1ccc(CCCOc2c(OC)ccc3ccc(C(=N)N)cc23)cc1OC [Example 24] — within 1.5-fold, 4.9 µM
- N=C(N)c1ccc2ccc(OCCO)c(I)c2c1 [Example 29, 7-(2-Hydroxyethoxy)-8-iodo-2-naphthalenecarboximidamide] — within 1.5-fold, 2.5 µM
- N=C(N)c1ccc2ccc(OCCO)cc2c1 [Example 30, 7-(2-Hydroxyethoxy)-2-naphthalenecarboximidamide] — within 1.5-fold, 3.6 µM
- CC(C)CC#Cc1ccc2cc(C(=N)N)ccc2c1 [Example 31, 6-(4-Methyl-1-pentynyl)-2-naphthalenecarboximidamide] — within 1.5-fold, 2.93 µM
- N=C(N)c1ccc2cc(C#CCCCc3ccccc3)ccc2c1 [Example 32, 6-(5-Phenylpentynyl)-2-naphthalenecarboximidamide] — within 1.5-fold, 4.6 µM
- N=C(N)c1ccc2cc(C#CCc3ccccc3)ccc2c1 [Example 33, 6-(3-Phenyl-1-propynyl)-2-naphthalenecarboximidamide] — within 1.5-fold, 2.4 µM
- N=C(N)c1ccc2cc(C#Cc3ccccc3)ccc2c1 [Example 34, 6-(Phenylethynyl)-2-naphthalenecarboximidamide] — within 1.5-fold, 3.5 µM
- COc1cc(OCc2ccccc2)c2cc(C(=N)N)ccc2c1 [Example 38, 6-methoxy-8-benzyloxy-2-naphthalenecarboximidamide] — 1.9-fold higher, 6.35 µM
- CCCOc1ccc2ccc(C(=N)N)cc2c1I [Example 43, 7-Propoxy-8-iodo-2-naphthalenecarboximidamide] — within 1.5-fold, 2.2 µM
- [H]/N=C(/N)c1ccc2cc(C=Cc3cccs3)ccc2c1 [Example 45, (E)-6-[2-(2-Thienyl)ethenyl]-2-naphthalenecarboximidamide] — within 1.5-fold, 2.94 µM
- CC(=O)CCc1ccc2cc(C(=N)N)ccc2c1 [Example 46, 6-(3-Oxobutyl)-2-naphthalenecarboximidamide] — within 1.5-fold, 2.4 µM
- COc1cccc(-c2ccc3cc(C(=N)N)ccc3c2)c1 [Example 47, 6-(3-Methoxyphenyl)-2-naphthalenecarboximidamide] — within 1.5-fold, 4.8 µM
- N=C(N)c1ccc2cc(-c3ccccc3C=O)ccc2c1 [Example 50, 6-(2-Formylphenyl)-2-naphthalenecarboximidamide] — 1.9-fold higher, 6.13 µM
- N=C(N)c1ccc2cc(-c3ccccc3CO)ccc2c1 [Example 51, 6-[2-(Hydroxymethyl)phenyl]-2-naphthalenecarboximidamide] — within 1.5-fold, 4.7 µM
- CC(=O)C=Cc1ccc2cc(C(=N)N)ccc2c1 [Example 52, 6-(3-Oxo-1-butenyl)-2-naphthalenecarboximidamide] — within 1.5-fold, 4.7 µM
- COc1ccc2ccc(C(=N)N)cc2c1-c1cn[nH]c1 [Example 53, 7-Methoxy-8-(1H-pyrazol-4-yl)-2-naphthalenecarboximidamide] — within 1.5-fold, 2.96 µM
- COc1ccc2ccc(C(=N)N)cc2c1I [Example 54, 7-Methoxy-8-iodo-2-naphthalenecarboximidamide] — within 1.5-fold, 2.7 µM
- CSc1ccccc1-c1ccc2cc(C(=N)N)ccc2c1 [Example 57, 6-[2-(Methylthio)phenyl]-2-naphthalenecarboximidamide] — within 1.5-fold, 3.4 µM
- COc1ccc2ccc(C(=N)N)cc2c1-c1cc2ccccc2o1 [Example 60, 7-Methoxy-8-(2-benzofuranyl)naphthalene-2-carboximidamide] — 4.6-fold lower, 0.72 µM
- [H]/N=C(/N)c1ccc2cccc(C=Cc3ccc4c(c3)OCO4)c2c1 [Example 61, (E)-8-[2-(1,3-Benzodioxol-5-yl)ethenyl]-2-naphthalenecarboximidamide] — 4.5-fold lower, 0.73 µM
- COc1ccc2ccc(C(=N)N)cc2c1Oc1ncccn1 [Example 64, 7-Methoxy-8-[2-pyrimidinyl(oxy)]-2-naphthalenecarboximidamide] — 5.9-fold lower, 0.56 µM
- COc1ccc2ccc(C(=N)N)cc2c1Oc1ccc([N+](=O)[O-])cc1 [Example 66, 7-Methoxy-8-(4-nitrophenoxy)-2-naphthalenecarboximidamide] — within 1.5-fold, 3.13 µM
- N=C(N)c1ccc2cc(N)ccc2c1 [Example 73, 6-Aminonaphthalene-2-carboximidamide] — the same, 3.3 µM
- [H]/N=C(/N)c1ccc2cc(C=CSc3ccccc3)ccc2c1 [Example 80, (E)-6-[2-(Phenylthio)ethenyl]-2-naphthalenecarboximidamide] — 1.7-fold lower, 1.93 µM
- [H]/N=C(/N)c1ccc2cc(C=Cc3ccco3)ccc2c1 [Example 81, (E)-6-[2-(2-Furanyl)ethenyl]-2-naphthalenecarboximidamide] — within 1.5-fold, 3.21 µM
- [H]/N=C(/N)c1ccc2cc(C=Cn3ccnc3)ccc2c1 [Example 82, (E)-6-[2-(1H-Imidazol-1-yl)ethenyl]-2-naphthalenecarboximidamide] — within 1.5-fold, 3.08 µM
- N=C(N)c1ccc2cc(OCCc3ccc(N)cc3)ccc2c1 [Example 89, 6-[2-(4-Aminophenyl)ethoxy]-2-naphthalenecarboximidamide] — 2-fold higher, 6.5 µM
- COc1ccc2ccc(C(=N)N)cc2c1Nc1ncccn1 [Example 91, 7-Methoxy-8-[2-pyrimidinyl(amino)]-2-naphthalenecarboximidamide] — 66-fold lower, 0.05 µM
- [H]/N=C(/N)c1ccc2cc(C=Cc3ccc(CN)cc3)ccc2c1 [Example 98, (E)-6-[2-[4-(aminomethyl)phenyl]ethenyl]-2-naphthalenecarboximidamide] — 14-fold lower, 0.24 µM
- COc1ccc2ccc(C(=N)N)cc2c1NCc1ccccc1 [Example 101, 7-methoxy-8-[(phenylmethyl)amino]-2-naphthalenecarboximidamide] — 4.1-fold lower, 0.8 µM
- COc1ccc(Nc2c(OC)ccc3ccc(C(=N)N)cc23)cc1 [Example 103, 7-methoxy-8-[(4-methoxyphenyl)amino]-2-naphthalenecarboximidamide] — 5.8-fold lower, 0.57 µM
- [H]/N=C(/N)c1ccc2cc(C=Cc3ccc([C@@H](N)CO)cc3)ccc2c1 [Example 105, (E)-6-[2-[4-(1R-amino-2-hydroxyethyl)phenyl]ethenyl]-2-naphthalenecarboximidamide] — 3.9-fold lower, 0.84 µM
- COc1ccc2ccc(C(=N)N)cc2c1Nc1ncccn1 [Example 106, 7-methoxy-8-(2-pyrimidinylamino)-2-naphthalenecarboximidamide] — 4.3-fold lower, 0.76 µM

Same assay, conditions: Inhibitory potency against urokinase; substrate S-2444 at 200 μM, enzyme 2-3 nM, pH 7.4, 405 nm; read-out: IC50

Point of comparison: `CN(C(=O)Nc1ccc2cc(C(=N)N)ccc2c1)c1ccccc1` [Example 72], IC50 4.3 µM. Against it:
- 6-[2-(2-Thiomethoxoxyethyl)phenyl]naphthalene-2-carboximidamide [Example 58] — 1.7-fold lower, 2.53 µM
- 6-[amino(ethoxycarbonyl)imino]-N-[3-(1-methylethoxy)phenyl]-2-naphthalenecarboxamide [Example 226] — higher, > 30 µM
- 7-Methoxy-8-(1-acetyl-1H-pyrazolyl)-2-naphthalenecarboximidamide [Example 86] — within 1.5-fold, 3.6 µM
- 7-methoxy-8-(2-pyrimidinylamino)-2-naphthalenecarboximidamide [Example 100] — within 1.5-fold, 3.16 µM
- 8-(carbonylbenzyloxy)amino-2-naphthalenecarboximidamide [Example 14] — 13-fold lower, 0.33 µM
- N=C(N)c1ccc2cc(C(=O)Nc3ccc(N)cc3)ccc2c1 [Example 9] — 3.9-fold lower, 1.1 µM
- COC(=O)Nc1cc(C(=O)OC)cc2ccc(C(=N)N)cc12 [Example 26, methyl 6-(aminoiminomethyl)-4-[(methoncarbonyl)amino]-2-naphthalenecarboxylate] — 110-fold lower, 0.04 µM
- [H]/N=C(/N)c1ccc2ccc(OC)c(C=Cc3ccccc3)c2c1 [Example 27, (E)-{7-Methoxy-8-[2-(Phenyl)ethenyl]}-2-naphthaleneimidamide] — 4.6-fold lower, 0.93 µM
- N=C(N)c1ccc2cc(C#CCCc3ccccc3)ccc2c1 [Example 28, 6-(4-Phenylbutynyl)-2-naphthalenecarboximidamide] — 2-fold lower, 2.1 µM
- N=C(N)c1ccc2cc(C#CCNC(=O)c3cccc(N)c3)ccc2c1 [Example 35] — within 1.5-fold, 3.97 µM
- N=C(N)c1ccc2cc(CCc3ccccc3)ccc2c1 [Example 42, 6-[2-(Phenyl)ethyl]-2-naphthalenecarboximidamide] — 2.1-fold lower, 2.08 µM
- COc1ccc2ccc(C(=N)N)cc2c1Oc1nccs1 [Example 65, 7-Methoxy-8-[2-thiazoyl(oxy)]naphthalene-2-carboximidamide] — 8-fold lower, 0.54 µM
- COc1ccc2ccc(C(=N)N)cc2c1Oc1c(F)c(F)c(F)c(F)c1F [Example 67, 7-Methoxy-8-pentafluorophenoxy-2-naphthalenecarboximidamide] — 1.5-fold lower, 2.78 µM
- CC(C)(C)OC(=O)Nc1ccc(NC(=O)Nc2ccc3cc(C(=N)N)ccc3c2)cc1 [Example 79, 1,1-dimethylethyl [4-[[[6-aminoiminomethyl)-2-naphthalenyl)amino]carbonyl]amino]phenyl carbamate] — 4.5-fold lower, 0.96 µM
- N=C(N)c1ccc2cc(/C=C/c3ccc(C(N)=O)cc3)ccc2c1 [Example 88, (E)-4-[2-(6-Aminoininomethyl-2-naphthalenyl)ethenyl]benzamide] — 1.6-fold lower, 2.73 µM
- [H]/N=C(/N)c1ccc2cc(C=Cc3cccc(CO)c3)ccc2c1 [Example 96, (E)-6-[2-[(3-hydroxymethyl)phenyl]ethenyl]-2-naphthalenecarboximidamide] — 5-fold lower, 0.86 µM
- [H]/N=C(/N)c1ccc2cc(C=Cc3ccc(CN(C)C)cc3)ccc2c1 [Example 107, (E)-6-[2-[[4-(dimethylamino)methyl]phenyl]ethenyl]-2-naphthalenecarboximidamide] — 1.8-fold lower, 2.34 µM
